Measurements taken from patent US20040156869A1, “2-substituted quinazolin-4-ylamine analogues” (Neurogen Corporation, priority 2002, published 2004).

target: human capsaicin receptor (VR1) (Homo sapiens, UniProt Q8NER1); test: Capsaicin receptor binding assay ([3H]RTX competition, VR1-transfected HEK293 membranes)
Sequence (Q8NER1 whole entry): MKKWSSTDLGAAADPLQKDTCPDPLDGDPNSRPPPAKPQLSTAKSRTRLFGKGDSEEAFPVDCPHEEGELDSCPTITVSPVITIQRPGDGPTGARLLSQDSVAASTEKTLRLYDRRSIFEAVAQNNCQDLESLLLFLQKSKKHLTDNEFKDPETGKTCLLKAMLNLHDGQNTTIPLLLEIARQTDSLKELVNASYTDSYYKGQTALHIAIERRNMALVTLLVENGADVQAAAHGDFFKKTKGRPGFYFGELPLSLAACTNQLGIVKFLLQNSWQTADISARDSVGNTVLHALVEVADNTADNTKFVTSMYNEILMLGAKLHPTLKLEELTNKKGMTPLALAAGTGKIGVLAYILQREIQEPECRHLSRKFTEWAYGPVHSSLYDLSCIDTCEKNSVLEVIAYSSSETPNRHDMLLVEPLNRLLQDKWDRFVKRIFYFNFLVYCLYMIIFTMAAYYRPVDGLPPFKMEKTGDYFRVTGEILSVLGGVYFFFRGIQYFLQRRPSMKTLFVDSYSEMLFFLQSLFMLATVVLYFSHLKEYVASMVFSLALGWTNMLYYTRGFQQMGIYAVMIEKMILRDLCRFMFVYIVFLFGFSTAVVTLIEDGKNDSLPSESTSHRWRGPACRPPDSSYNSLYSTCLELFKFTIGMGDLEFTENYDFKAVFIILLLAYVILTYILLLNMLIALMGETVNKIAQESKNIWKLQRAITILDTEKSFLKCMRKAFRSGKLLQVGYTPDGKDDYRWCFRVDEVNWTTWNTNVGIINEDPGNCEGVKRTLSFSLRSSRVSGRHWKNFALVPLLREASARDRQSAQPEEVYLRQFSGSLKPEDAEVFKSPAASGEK

Ki, < 1 µM:
COCc1nc(Nc2ccc(Cl)cc2)c2ccc(-c3ncccc3C(F)(F)F)nc2n1 [Compound 287, (4-Chloro-phenyl)-[2-methoxymethyl-7-(3-trifluoromethyl-pyridin-2-yl)-pyrido[2,3-d]pyrimidin-4-yl]-amine]
COCc1nc(Nc2ccc(C#N)cc2)c2ccc(-c3ncccc3C(F)(F)F)nc2n1 [Compound 288, 4-[2-Methoxymethyl-7-(3-trifluoromethyl-pyridin-2-yl)-pyrido[2,3-d]pyrimidin-4-ylamino]-benzonitrile]
COCc1nc(Nc2ccc(C(C)=O)cc2)c2ccc(-c3ncccc3C(F)(F)F)nc2n1 [Compound 289, 1-{4-[2-Methoxymethyl-7-(3-trifluoromethyl-pyridin-2-yl)-pyrido[2,3-d]pyrimidin-4-ylamino]-phenyl}-ethanone]
COCc1nc(Nc2ccc(C(C)(C)C#N)cc2)c2ccc(-c3ncccc3C(F)(F)F)nc2n1 [Compound 290, 2-{4-[2-Methoxymethyl-7-(3-trifluoromethyl-pyridin-2-yl)-pyrido[2,3-d]pyrimidin-4-ylamino]-phenyl}-2-methyl-propionitrile]
COCc1nc(Nc2ccc(F)c(F)c2)c2ccc(-c3ncccc3C(F)(F)F)nc2n1 [Compound 291, (3,4-Difluoro-phenyl)-[2-methoxymethyl-7-(3-trifluoromethyl-pyridin-2-yl)-pyrido[2,3-d]pyrimidin-4-yl]-amine]
COCc1nc(Nc2ccc(Cl)c(F)c2)c2ccc(-c3ncccc3C(F)(F)F)nc2n1 [Compound 292, (4-Chloro-3-fluoro-phenyl)-[2-methoxymethyl-7-(3-trifluoromethyl-pyridin-2-yl)-pyrido[2,3-d]pyrimidin-4-yl]-amine]
COCc1nc(Nc2ccc(Cl)c(C)c2)c2ccc(-c3ncccc3C(F)(F)F)nc2n1 [Compound 293, (4-Chloro-3-methyl-phenyl)-[2-methoxymethyl-7-(3-trifluoromethyl-pyridin-2-yl)-pyrido[2,3-d]pyrimidin-4-yl]-amine]
COCc1nc(Nc2ccc(Cl)c(C(F)(F)F)c2)c2ccc(-c3ncccc3C(F)(F)F)nc2n1 [Compound 294]
COCc1cc2nc(-c3ncccc3C(F)(F)F)ccc2c(Nc2ccc(C(F)(F)F)cc2)n1 [Compound 295, [7-Methoxymethyl-2-(3-trifluoromethyl-pyridin-2-yl)-[1,6]naphthyridin-5-yl]-(4-trifluoromethyl-phenyl)-amine]
CC(C)COCc1cc2nc(-c3ncccc3C(F)(F)F)ccc2c(Nc2ccc(C(F)(F)F)cc2)n1 [Compound 296, [7-Isobutoxymethyl-2-(3-trifluoromethyl-pyridin-2-yl)-[1,6]naphthyridin-5-yl]-(4-trifluoromethyl-phenyl)-amine]
COCc1cc(Nc2ccc(C(F)(F)F)cc2)c2ccc(-c3ncccc3C(F)(F)F)nc2n1 [Compound 297, [2-Methoxymethyl-7-(3-trifluoromethyl-pyridin-2-yl)-[1,8]naphthyridin-4-yl]-(4-trifluoromethyl-phenyl)-amine]
COCc1cc(Nc2ccc(C(C)(C)C)cc2)c2ccc(-c3ncccc3C(F)(F)F)nc2n1 [Compound 298, (4-tert-Butyl-phenyl)-[2-methoxymethyl-7-(3-trifluoromethyl-pyridin-2-yl)-[1,8]naphthyridin-4-yl]-amine]
COCc1nc2nc(-c3ncccc3C(F)(F)F)ccc2c(Nc2ccc(C(F)(F)F)cc2)c1C(=O)OC [Compound 299, 2-Methoxymethyl-4-(4-trifluoromethyl-phenylamino)-7-(3-trifluoromethyl-pyridin-2-yl)-[1,8]naphthyridine-3-carboxylic acid methyl ester]
OCc1cc(Nc2ccc(C(F)(F)F)cc2)c2ccc(-c3ncccc3C(F)(F)F)nc2n1 [Compound 300, [4-(4-Trifluoromethyl-phenylamino)-7-(3-trifluoromethyl-pyridin-2-yl)-[1,8]naphthyridin-2-yl]-methanol]
CC(C)COCc1cc(Nc2ccc(C(F)(F)F)cc2)c2ccc(-c3ncccc3C(F)(F)F)nc2n1 [Compound 301, [2-Isobutoxymethyl-7-(3-trifluoromethyl-pyridin-2-yl)-[1,8]naphthyridin-4-yl]-(4-trifluoromethyl-phenyl)-amine]
COCc1cc(Nc2ccc(Cl)cc2)c2ccc(-c3ncccc3C(F)(F)F)nc2n1 [Compound 302, (4-Chloro-phenyl)-[2-methoxymethyl-7-(3-trifluoromethyl-pyridin-2-yl)-[1,8]naphthyridin-4-yl]-amine]
COCc1cc(Nc2ccc(F)cc2)c2ccc(-c3ncccc3C(F)(F)F)nc2n1 [Compound 303, (4-Fluoro-phenyl)-[2-methoxymethyl-7-(3-trifluoromethyl-pyridin-2-yl)-[1,8]naphthyridin-4-yl]-amine]
COCc1cc(Nc2ccc(Cl)c(F)c2)c2ccc(-c3ncccc3C(F)(F)F)nc2n1 [Compound 304, (4-Chloro-3-fluoro-phenyl)-[2-methoxymethyl-7-(3-trifluoromethyl-pyridin-2-yl)-[1,8]naphthyridin-4-yl]-amine]
COCc1cc(Nc2ccc(C#N)cc2)c2ccc(-c3ncccc3C(F)(F)F)nc2n1 [Compound 305, 4-[2-Methoxymethyl-7-(3-trifluoromethyl-pyridin-2-yl)-[1,8]naphthyridin-4-ylamino]-benzonitrile]
COCc1cc(Nc2ccc(S(=O)(=O)C(C)C)cc2)c2ccc(-c3ncccc3C(F)(F)F)nc2n1 [Compound 306, [2-Methoxymethyl-7-(3-trifluoromethyl-pyridin-2-yl)-[1,8]naphthyridin-4-yl]-[4-(propane-2-sulfonyl)-phenyl]-amine]
COCc1cc(Nc2ccc(C(F)(F)F)cn2)c2ccc(-c3ncccc3C(F)(F)F)nc2n1 [Compound 307, [2-Methoxymethyl-7-(3-trifluoromethyl-pyridin-2-yl)-[1,8]naphthyridin-4-yl]-(5-trifluoromethyl-pyridin-2-yl)-amine]
COCc1cc(Nc2ccc(S(=O)(=O)C(F)(F)F)cc2)c2ccc(-c3ncccc3C(F)(F)F)nc2n1 [Compound 308, [2-Methoxymethyl-7-(3-trifluoromethyl-pyridin-2-yl)-[1,8]naphthyridin-4-yl]-(4-trifluoromethanesulfonyl-phenyl)-amine]
CN(C)CCOCc1cc(Nc2ccc(C(F)(F)F)cc2)c2ccc(-c3ncccc3C(F)(F)F)nc2n1 [Compound 309, [2-(2-Dimethylamino-ethoxymethyl)-7-(3-trifluoromethyl-pyridin-2-yl)-[1,8]naphthyridin-4-yl]-(4-trifluoromethyl-phenyl)-amine]
CCOCc1cc(Nc2ccc(C(F)(F)F)cc2)c2ccc(-c3ncccc3C(F)(F)F)nc2n1 [Compound 310, [2-Ethoxymethyl-7-(3-trifluoromethyl-pyridin-2-yl)-[1,8]naphthyridin-4-yl]-(4-trifluoromethyl-phenyl)-amine]
CC(C)OCc1cc(Nc2ccc(C(F)(F)F)cc2)c2ccc(-c3ncccc3C(F)(F)F)nc2n1 [Compound 311, [2-Isopropoxymethyl-7-(3-trifluoromethyl-pyridin-2-yl)-[1,8]naphthyridin-4-yl]-(4-trifluoromethyl-phenyl)-amine]
CC(C)CCOCc1cc(Nc2ccc(C(F)(F)F)cc2)c2ccc(-c3ncccc3C(F)(F)F)nc2n1 [Compound 312, [2-(3-Methyl-butoxymethyl)-7-(3-trifluoromethyl-pyridin-2-yl)-[1,8]naphthyridin-4-yl]-(4-trifluoromethyl-phenyl)-amine]
CCCOCc1cc(Nc2ccc(C(F)(F)F)cc2)c2ccc(-c3ncccc3C(F)(F)F)nc2n1 [Compound 313, [2-Propoxymethyl-7-(3-trifluoromethyl-pyridin-2-yl)-[1,8]naphthyridin-4-yl]-(4-trifluoromethyl-phenyl)-amine]
CC(C)COCc1cc(Nc2ccc(C(F)(F)F)cn2)c2ccc(-c3ncccc3C(F)(F)F)nc2n1 [Compound 314, [2-Isobutoxymethyl-7-(3-trifluoromethyl-pyridin-2-yl)-[1,8]naphthyridin-4-yl]-(5-trifluoromethyl-pyridin-2-yl)-amine]
CC(c1ccccc1)N(C)Cc1nc(Nc2ccc(C(F)(F)F)cc2)c2ccc(-c3ncccc3C(F)(F)F)cc2n1 (stereo not shown) [Compound 323, [2-{[Methyl-(1-phenyl-ethyl)-amino]-methyl}-7-(3-trifluoromethyl-pyridin-2-yl)-quinazolin-4-yl]-(4-trifluoromethyl-phenyl)-amine]
CN(Cc1nc(Nc2ccc(C(F)(F)F)cc2)c2ccc(-c3ncccc3C(F)(F)F)cc2n1)C1CCc2ccccc21 (stereo not shown) [Compound 324, [2-[(Indan-1-yl-methyl-amino)-methyl]-7-(3-trifluoromethyl-pyridin-2-yl)-quinazolin-4-yl]-(4-trifluoromethyl-phenyl)-amine]
CCCN(C)Cc1nc(Nc2ccc(C(F)(F)F)cc2)c2ccc(-c3ncccc3C(F)(F)F)cc2n1 [Compound 330]
CCCCN(C)Cc1nc(Nc2ccc(C(F)(F)F)cc2)c2ccc(-c3ncccc3C(F)(F)F)cc2n1 [Compound 331]
CCN(Cc1nc(Nc2ccc(C(F)(F)F)cc2)c2ccc(-c3ncccc3C(F)(F)F)cc2n1)C(C)C [Compound 332]
C=CCN(CC=C)Cc1nc(Nc2ccc(C(F)(F)F)cc2)c2ccc(-c3ncccc3C(F)(F)F)cc2n1 [Compound 333]
CCCCN(CC)Cc1nc(Nc2ccc(C(F)(F)F)cc2)c2ccc(-c3ncccc3C(F)(F)F)cc2n1 [Compound 334]
CCCCCCN(C)Cc1nc(Nc2ccc(C(F)(F)F)cc2)c2ccc(-c3ncccc3C(F)(F)F)cc2n1 [Compound 336]
CC(C)N(C)Cc1nc(Nc2ccc(C(F)(F)F)cc2)c2ccc(-c3ncccc3C(F)(F)F)cc2n1 [Compound 338]
